In DBAASP one finds MIC data, which are given here for five molecules.

Converted amounts (≈) assume the structure as drawn. “And” between values parts separate entries of the source, which are not always exact repeats. Equal entries are not always repeated.

Test systems include Escherichia coli 780; Staphylococcus aureus 75; Escherichia coli 804; Escherichia coli; Staphylococcus aureus; Lactococcus lactis; Bacillus cereus; Proteus mirabilis; Acinetobacter sp.; Klebsiella sp.; Providencia stuartii; Klebsiella aerogenes; Escherichia coli UB1005; Candida albicans 3153A; Escherichia coli DC2; Escherichia coli O157:H7; Candida albicans 105; Escherichia coli O111.

Test in all cases: ≥ marks a high value that may be exact or a test limit, other limits are often not marked, values filed in µg/mL are converted to µM
Experiment [1] relates to Klebsiella pneumoniae ATCC 700603.
Experiment [2] deals with Pseudomonas aeruginosa ATCC 9027.
For experiment [3], the system named is Pseudomonas aeruginosa 73.
Experiment [4] concerns Escherichia coli ATCC 25922.
Experiment [5] concerns Staphylococcus epidermidis ATCC 12228.
Experiment [6] deals with Acinetobacter baumannii 9931.
The subject of experiment [7] is Pseudomonas aeruginosa 50.
Experiment [8] has as its system Staphylococcus aureus ATCC 29213.
Experiment [9] deals with Acinetobacter baumannii 97830.
In experiment [10] the test system is Staphylococcus aureus 113.
Experiment [11] has as its system Bacillus subtilis ATCC 23857.
The subject of experiment [12] is Staphylococcus aureus ATCC 25923.
The test system of experiment [13] is Acinetobacter baumannii ATCC 19606.
For experiment [14], the system named is Pseudomonas aeruginosa ATCC 27853.
Experiment [15] concerns Candida albicans ATCC 64549.
The subject of experiment [16] is Shigella dysenteriae ATCC 9752.
Experiment [17] relates to Proteus mirabilis ATCC 25933.
Experiment [18] has as its system Staphylococcus aureus KCTC 3881.
For experiment [19], the system named is Klebsiella pneumoniae ATCC 10031.
Experiment [20] concerns Bacillus subtilis ATCC 6633.
Experiment [21] has as its system Micrococcus luteus ATCC 4698.
The test system of experiment [22] is Candida albicans ATCC 36232.
Experiment [23] deals with Escherichia coli KCTC 2433.
In experiment [24] the test system is Escherichia coli NCTC 8007.
Experiment [25] relates to Escherichia coli NCTC 10418.
Experiment [26] has as its system Staphylococcus aureus NCTC 10571.
Experiment [27] relates to Staphylococcus aureus 1056.
For experiment [28], the system named is Enterococcus faecalis ATCC 29212.
The subject of experiment [29] is Pseudomonas aeruginosa Z61.
The subject of experiment [30] is Staphylococcus aureus NCTC 4163.
The test system of experiment [31] is Salmonella enterica serovar Typhimurium MS4252S.
The subject of experiment [32] is Staphylococcus epidermidis.
The subject of experiment [33] is Pseudomonas aeruginosa PAO1.
Experiment [34] has as its system Staphylococcus aureus R147.
Experiment [35] concerns Salmonella enterica subsp. enterica serovar Typhimurium ATCC 14028s.

The term MIC denotes the smallest concentration in the dilution series that meets the test's criterion for growth inhibition. Regarding `C[C@H](N)C(=O)N[C@@H](CCCN=C(N)N)C(=O)N[C@@H](Cc1c[nH]c2ccccc12)C(=O)N[C@@H](Cc1c[nH]c2ccccc12)C(=O)N[C@@H](Cc1c[nH]c2ccccc12)C(=O)N[C@@H](CCCN=C(N)N)C(=O)N[C@@H](C)C(N)=O` [ARWWWRA], the MIC in experiment [1] is over 128 µM; in experiment [2] it was over 128 µM; in experiment [3] it was at least 128 µM; in experiment [4], over 128 µM; against Escherichia coli 780, at least 128 µM; in [5], 32 µM (≈ 33 µg/mL). The minimum inhibitory concentration (MIC) in experiment [6] was at least 128 µM; in experiment [7], at least 128 µM; in [8], 128 µM (≈ 132 µg/mL); in [9], at least 128 µM; in experiment [10], at least 64 µM; with Staphylococcus aureus 75, at least 64 µM. Also, the minimum inhibitory concentration (MIC) in experiment [11] was 16 µM (≈ 16.5 µg/mL); in [12] it was 64 µM and 128 µM; in experiment [13], over 128 µM; in the experiment with Escherichia coli 804 it was at least 128 µM; in experiment [14], over 128 µM.

On to `CSCC[C@H](NC(=O)[C@H](CC(N)=O)NC(=O)[C@H](CCCN=C(N)N)NC(=O)[C@H](CCC(N)=O)NC(=O)[C@H](Cc1c[nH]c2ccccc12)NC(=O)[C@H](CCC(N)=O)NC(=O)[C@H](Cc1ccccc1)NC(=O)[C@@H](N)CS)C(=O)N[C@@H](CCCN=C(N)N)C(=O)N[C@@H](CCCCN)C(=O)N[C@H](C(=O)N[C@@H](CCCN=C(N)N)C(=O)O)C(C)C` [CFQWQRNMRKVR], for which, in experiment [15], the MIC is 7.57 µM (≈ 12.5 µg/mL).

Regarding `CC[C@H](C)[C@H](NC(=O)[C@H](CC(C)C)NC(=O)[C@@H](N)Cc1ccccc1)C(=O)NCC(=O)N[C@@H](CCSC)C(=O)N[C@H](C(=O)N[C@@H](CCC(N)=O)C(=O)NCC(=O)N[C@@H](CC(C)C)C(=O)N[C@H](C(=O)N[C@H]1CSSC[C@@H](C(=O)O)NC(=O)[C@H](CCCCN)NC(=O)[C@H](CCCN=C(N)N)NC(=O)[C@H]([C@@H](C)O)NC(=O)[C@H]([C@@H](C)CC)NC(=O)[C@H](CC(C)C)NC1=O)[C@@H](C)CC)[C@@H](C)O` [FLIGMTQGLICLITRKC], the MIC with Escherichia coli was 25.6 µM (≈ 48.9 µg/mL); with Staphylococcus aureus, 12.8 µM (≈ 24.4 µg/mL); in [16], 26.2 µM (≈ 49.9 µg/mL); in experiment [17] it was at least 52.3 µM; in [2], over 52.3 µM; in experiment [5] it was 13.1 µM (≈ 25 µg/mL). The MIC in experiment [18] worked out at 7.85 µM (≈ 15 µg/mL); in [19], 31.4 µM (≈ 59.9 µg/mL); in the experiment on Lactococcus lactis, 25.6 µM (≈ 48.9 µg/mL); against Bacillus cereus, 25.6 µM (≈ 48.9 µg/mL); in experiment [20] it was 13.1 µM (≈ 25 µg/mL); in [21], 3.27 µM (≈ 6.24 µg/mL). Besides, the MIC was at least 52.3 µM in [22] and 31.4 µM (≈ 59.9 µg/mL) in [23].

For `CC(C)[C@H](NC(=O)[C@H](CCCCN)NC(=O)[C@H](CCCN=C(N)N)NC(=O)[C@@H]1CCCN1C(=O)[C@H](CC(N)=O)NC(=O)[C@H](CCCN=C(N)N)NC(=O)[C@H](CCC(N)=O)NC(=O)[C@H](Cc1c[nH]c2ccccc12)NC(=O)[C@H](CCC(N)=O)NC(=O)[C@@H](N)Cc1ccccc1)C(=O)N[C@@H](CCCN=C(N)N)C(=O)O` [FQWQRNPRKVR], the MIC was at least 1000 µM in the experiment with Proteus mirabilis; at least 1000 µM in [24]; at least 750 µM in experiment [25]; 10 µM (≈ 15.1 µg/mL) in the experiment with Acinetobacter sp.; at least 1000 µM in the experiment with Klebsiella sp.; at least 1000 µM with Providencia stuartii. Also, the MIC in the experiment with Klebsiella aerogenes is at least 1000 µM; in experiment [26], at least 250 µM.

Regarding `CC[C@H](C)[C@H](NC(=O)[C@@H]1CCCN1C(=O)[C@H](CCCN=C(N)N)NC(=O)[C@@H]1CCCN1C(=O)[C@@H](NC(=O)[C@H](CCCN=C(N)N)NC(=O)[C@@H](N)CCCN=C(N)N)[C@@H](C)CC)C(=O)N[C@@H](CC(C)C)C(=O)N[C@@H](CC(C)C)C(=O)N1CCC[C@H]1C(=O)N[C@@H](Cc1c[nH]c2ccccc12)C(=O)N[C@@H](CCCN=C(N)N)C(=O)N1CCC[C@H]1C(=O)N1CCC[C@H]1C(=O)N[C@@H](CCCN=C(N)N)C(=O)N1CCC[C@H]1C(=O)N[C@H](C(=O)N1CCC[C@H]1C(=O)N[C@@H](CCCN=C(N)N)C(=O)N1CCC[C@H]1C(=O)N[C@@H](CCC(N)=O)C(=O)N1CCC[C@H]1C(=O)N[C@@H](CCC(N)=O)C(=O)N1CCC[C@H]1C(=O)N[C@H](C(=O)N1CCC[C@H]1C(=O)N[C@@H](CCCN=C(N)N)C(=O)N[C@@H](Cc1c[nH]c2ccccc12)C(=O)N[C@@H](CC(C)C)C(N)=O)[C@@H](C)CC)[C@@H](C)CC` [RRIPRPILLPWRPPRPIPRPQPQPIPRWL], the MIC is 2.22 µM (≈ 8 µg/mL) against Escherichia coli UB1005; 17.8 µM (≈ 64 µg/mL) against Candida albicans 3153A; 0.555 µM (≈ 2 µg/mL) against Escherichia coli DC2; 17.8 µM (≈ 64 µg/mL) in experiment [27]; 8.89 µM (≈ 32 µg/mL) in the experiment with Escherichia coli O157:H7; 17.8 µM (≈ 64 µg/mL) in the experiment on Candida albicans 105. For the same molecule, the MIC worked out at 17.8 µM (≈ 64 µg/mL) in [28]; 8.89 µM (≈ 32 µg/mL) in [29]; 17.8 µM (≈ 64 µg/mL) in [30]; 4.44 µM (≈ 16 µg/mL) in the experiment with Escherichia coli O111; 0.555 µM (≈ 2 µg/mL) in experiment [31]; 8.89 µM (≈ 32 µg/mL) in experiment [32]. For the same molecule, the MIC stood at 4.44 µM (≈ 16 µg/mL) in experiment [33], 8.89 µM (≈ 32 µg/mL) in experiment [34] and 8.89 µM (≈ 32 µg/mL) in [35].
